Laboratory results as given in patent publication US8734863B2, “Bioactive fraction of Petiveria alliacea, pharmaceutical composition containing same, and combination with immunostimulants for treating cancer” (Pontificia Universidad Javeriana, priority 2009, dated 2014).

Assays:
[1] = test system: tumour cell line NB4; test: Chromatin condensation and nuclear fragmentation, hematoxylin-eosine and DAPI staining; format: cell-based, human; settings: NB4, 24 h; S3 at 31.2 μg/mL
Experimental: Hematoxylin-eosine and DAPI (4′,6-diamidino-2-phenylindole, Sigma) stained cells were monitored under microscope to evaluated the type of cell death induced by the S3 fraction. In brief, cells treated with S3 fraction for 24 h at 37° C. under humidified atmosphere and 5% CO2, were plated onto microscope slides by cytocentrifugation (Vybra cytospin, Japan) for 5 min at 500 rpm, fixed with ethanol and stained with hematoxylin (2 min) and eosin (45 seconds). Excess dye was removed with ethanol (3 washes) and microscope slides were monitored and photographed under a light microscope (Olympus CH30, Japan) at a magnification of 100×. For DAPI staining, cells plated on glass cover slides (13 mm/-E) previously collagen-precoated (6-10 μg/cm2) at a density of 5×10^4 cells for 16 h, were treated with S3 fraction at 37° C. under humidified atmosphere and 5% CO2 for 24 h. Subsequently, cells were washed (PBS) and fixed with paraformaldehyde (2% in PBS) for 30 min at 4° C. After washing twice with PBS-BSA (1%), cells were incubated in cold acetone (1 min); washed (1% PBS-BSA) and incubated for 5 min with DAPI 300 nM (Sigma, St. Louis, Mo.). Slides with prolong antifade kit (Molecular Probes) were observed under a fluorescence microscope (Olympus, Japan).

[2] = test system: tumor cell line A375; test: Cell cycle distribution, propidium iodide flow cytometry; format: cell-based, human; settings: A375, F4 at 31.2 μg/mL; 18% in no treatment cells
Experimental: After treatment, cells were washed and fixed with ethanol (ice-cold 70%) during 18 h. After fixing, cells were suspended in PBS 1×, 100 U/ml RNase, 50 μg/ml of propidium iodide (Sigma, St. Louis, Mo.) and incubated at room temperature for 30 min. Cell DNA content was measured by flow cytometry using a FACScalibur, (Becton Dickinson, Fullerton, Calif. For cytometric data 50,000 cellular events were collected per sample and analyzed with Cell Quest software (Becton Dickinson). Cell cycle distribution percentages are calculated by Modfit LT software. FACScalibur calibration is performed with the DNA QC Particle Kit (Becton Dickinson).

[3] = test system: human peripheral blood mononuclear cells (PBMC); test: Growth of human mononuclear cells, MTT; format: cell-based; settings: PBMC with or without phytohemagglutinin, 30 h, F4 250 to 1.9 μg/ml
Experimental: For assays in normal cells, human peripheral blood mononuclear cells (PBMC) from healthy volunteers were separated by density gradient centrifugation (Ficoll-Hypaque, Amersham, Biosciences). PBMC were suspended in RPMI-1640 supplemented medium (10% FBS, 2 mM L-glutamine, 100 U/ml penicillin, 100 μg/ml streptomycin, 0.01 M Hepes) and incubated under humidified environment at 37° C. and 5% CO2.
Human PBMC were seeded (2×10^5 cells/well) on 96-well plates and incubated with or without phytohemagglutinin (PHA, GibcoBRL) for 12 h. Afterwards, PBMC were treated with F4 fraction (250 to 1.9 μg/ml), or vincristine for 30 h. After treatment cells were centrifuged, F4 fraction removed and lastly cells were carefully washed 3 times (PBS) before adding the MTT. Next 12 μl of MTT 12 mM [3-(4,5-dimethylthiazol-2-yl)-2,5-diphenyl tetrazolium bromide] (Molecular Probes, Eugene, Oreg., USA) in PBS was added to each well and incubated for 4 h at 37° C. Formazan crystals were dissolved with SDS-HCl 0.01M. MTT results were read at 540 nm in a Multiskan MCC/340 (LabSystems).

effect over growth of normal mononuclear cells [3] | Structure (SMILES) | type of cell death, hematoxylin-eosine staining [1] | G2 phase accumulation [2] [%]
 | CN[C@@H]1C[C@H]2O[C@@](C)([C@@H]1OC)n1c3ccccc3c3c4c(c5c6ccccc6n2c5c31)C(=O)NC4 [staurosporine] | nuclear fragmentation and DNA fragmentation | 
lack of effect | CC[C@]1(O)C[C@H]2CN(CCc3c([nH]c4ccccc34)[C@@](C(=O)OC)(c3cc4c(cc3OC)N(C=O)[C@H]3[C@@](O)(C(=O)OC)[C@H](OC(C)=O)[C@]5(CC)C=CCN6CC[C@]43[C@@H]65)C2)C1 [vincristine] |  | ~80
